Data set [1] has as its target T1, Mushroom tyrosinase (Agaricus bisporus) (UniProt O42713+Q00024+C7FF04+C7FF05). Briefly: Inhibition of mushroom tyrosinase using L-DOPA as substrate at 10 uM preincubated for 20 mins followed by substrate addition and measured after 10 mins relative to control. The settings on record: time 30.0 min.
In data set [2] the target is T1, Mushroom tyrosinase (Agaricus bisporus). Briefly: Inhibition of mushroom tyrosinase using L-DOPA as substrate at 0.5 uM preincubated for 20 mins followed by substrate addition and measured after 10 mins relative to control. The following applies: time 30.0 min.
Data set [3] has as its target T2, Mushroom tyrosinase (Agaricus bisporus, UniProt O42713+Q00024+C7FF04+C7FF05). Briefly: Inhibition of mushroom tyrosinase using L-DOPA as substrate preincubated for 20 mins followed by substrate addition and measured after 10 mins.
Data set [4] can be described thus: Antioxidant activity assessed as inhibition of DPPH radical activity at 100 uM incubated for 20 mins by spectrophotometric method relative to control. In kind it is functional.
For data set [5], the target named is T3, Tyrosinase (Mus musculus) (UniProt P11344).
T3 sequence (whole entry): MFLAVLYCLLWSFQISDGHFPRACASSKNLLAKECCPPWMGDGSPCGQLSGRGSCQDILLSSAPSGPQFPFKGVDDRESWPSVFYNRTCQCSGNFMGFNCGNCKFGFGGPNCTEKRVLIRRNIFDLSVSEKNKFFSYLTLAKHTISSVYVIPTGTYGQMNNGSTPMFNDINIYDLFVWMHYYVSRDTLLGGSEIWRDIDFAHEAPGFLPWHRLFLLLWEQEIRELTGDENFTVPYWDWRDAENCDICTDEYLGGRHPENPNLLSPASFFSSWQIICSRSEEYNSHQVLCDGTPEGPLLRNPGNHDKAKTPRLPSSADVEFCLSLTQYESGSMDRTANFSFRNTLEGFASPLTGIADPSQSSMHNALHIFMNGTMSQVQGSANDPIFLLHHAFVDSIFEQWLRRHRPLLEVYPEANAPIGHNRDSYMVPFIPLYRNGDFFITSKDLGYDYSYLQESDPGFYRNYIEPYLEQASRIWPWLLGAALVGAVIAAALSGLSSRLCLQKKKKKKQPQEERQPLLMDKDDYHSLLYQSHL
Nature of the data set: Inhibition of tyrosinase in mouse B16F10 cells assessed melanin level at 8 uM after 24 hrs relative to control. Also noted: scale not given: the % may be the effect or the level left. The settings on record: B16-F10. In kind it is cell-based.

Data set [6] addresses T3, Tyrosinase (Mus musculus). Briefly: Inhibition of tyrosinase in mouse B16F10 cells assessed reduction in melanin level at 2 uM after 24 hrs. In kind it is cell-based. The settings on record: B16-F10.
Data set [7] has as its system B16-F10. Nature of the data set: Cytotoxicity against mouse B16F10 cells assessed as reduction in cell viability at 2 to 4 uM after 48 hrs by MTT assay. It is filed as cell-based. The settings on record: b16-f10, 48 h, dose 2-4 µM. (In general: Tetrazolium assays rely on reduction of a dye to a coloured formazan, in cell work by metabolically active cells.)
For data set [8], the system named is B16-F10. Nature of the data set: Cytotoxicity against mouse B16F10 cells assessed as reduction in cell viability at 8 uM after 48 hrs by MTT assay. In kind it is cell-based. The following applies: b16-f10, 48 h.
Data set [9] has as its target T1, Mushroom tyrosinase (Agaricus bisporus). Briefly: Potency index, ratio of kojic acid IC50 to test compound IC50 for inhibition of mushroom tyrosinase using L-DOPA as substrate.
For data set [10], the target named is T2, Mushroom tyrosinase. Nature of the data set: Inhibition of mushroom tyrosinase using L-DOPA as substrate preincubated for 10 mins followed by substrate addition and measured after 20 mins.
The test system of data set [11] is O=c1cc(CSc2nc3ccccc3c(=O)n2Cc2ccccn2)occ1O. Nature of the data set: Uncompetitive inhibition of mushroom tyrosinase assessed as Km at 0.5 uM using L-DOPA as substrate preincubated for 10 mins followed by substrate addition and measured after 10 mins by Lineweaver-Burk plot analysis (reference value: […] uM). The settings on record: Agaricus bisporus, time 20.0 min.

Data set [12] shares this test system. Briefly: Uncompetitive inhibition of mushroom tyrosinase assessed as Km at 2.5 uM using L-DOPA as substrate preincubated for 10 mins followed by substrate addition and measured after 10 mins by Lineweaver-Burk plot analysis (reference value: […] uM). The settings on record: Agaricus bisporus, time 20.0 min.
For data set [13] the test system is unchanged. Briefly: Uncompetitive inhibition of mushroom tyrosinase assessed as Km at 10 uM using L-DOPA as substrate preincubated for 10 mins followed by substrate addition and measured after 10 mins by Lineweaver-Burk plot analysis (reference value: […] uM). The following applies: Agaricus bisporus, time 20.0 min.
For data set [14] the test system is unchanged. Nature of the data set: Uncompetitive inhibition of mushroom tyrosinase assessed as Vmax at 0.5 uM using L-DOPA as substrate preincubated for 10 mins followed by substrate addition and measured after 10 mins by Lineweaver-Burk plot analysis (reference value: […] OD/min). The settings on record: Agaricus bisporus, time 20.0 min.
Data set [15] shares this test system. Briefly: Uncompetitive inhibition of mushroom tyrosinase assessed as Vmax at 2.5 uM using L-DOPA as substrate preincubated for 10 mins followed by substrate addition and measured after 10 mins by Lineweaver-Burk plot analysis (reference value: […] OD/min). The following applies: Agaricus bisporus, time 20.0 min.
For data set [16] the test system is unchanged. Briefly: Uncompetitive inhibition of mushroom tyrosinase assessed as Vmax at 10 uM using L-DOPA as substrate preincubated for 10 mins followed by substrate addition and measured after 10 mins by Lineweaver-Burk plot analysis (reference value: […] OD/min). The following applies: Agaricus bisporus, time 20.0 min.

Activity calls are given as the source filed them. The rule behind the calls is not given here.

Sequence of Mushroom tyrosinase (Agaricus bisporus) (from UniProt O42713+Q00024+C7FF04+C7FF05) (C7FF05 whole entry, looked up): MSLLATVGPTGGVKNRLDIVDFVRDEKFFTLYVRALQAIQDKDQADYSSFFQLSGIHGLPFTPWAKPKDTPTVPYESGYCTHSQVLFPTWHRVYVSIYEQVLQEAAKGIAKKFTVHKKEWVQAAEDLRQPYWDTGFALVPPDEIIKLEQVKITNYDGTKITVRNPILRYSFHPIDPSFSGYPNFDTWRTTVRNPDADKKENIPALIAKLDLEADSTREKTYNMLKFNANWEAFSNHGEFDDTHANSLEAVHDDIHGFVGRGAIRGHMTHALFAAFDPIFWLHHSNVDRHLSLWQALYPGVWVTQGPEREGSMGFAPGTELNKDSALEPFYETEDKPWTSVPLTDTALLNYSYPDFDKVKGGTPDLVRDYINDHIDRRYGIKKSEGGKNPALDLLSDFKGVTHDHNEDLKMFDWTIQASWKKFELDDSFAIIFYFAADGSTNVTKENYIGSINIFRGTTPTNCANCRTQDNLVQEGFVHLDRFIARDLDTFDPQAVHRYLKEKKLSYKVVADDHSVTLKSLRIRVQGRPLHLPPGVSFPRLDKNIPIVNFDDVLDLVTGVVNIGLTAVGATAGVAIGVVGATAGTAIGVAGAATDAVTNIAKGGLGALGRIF
Sequence of Mushroom tyrosinase (Agaricus bisporus) (from UniProt O42713+Q00024+C7FF04+C7FF05) (C7FF04 whole entry, looked up): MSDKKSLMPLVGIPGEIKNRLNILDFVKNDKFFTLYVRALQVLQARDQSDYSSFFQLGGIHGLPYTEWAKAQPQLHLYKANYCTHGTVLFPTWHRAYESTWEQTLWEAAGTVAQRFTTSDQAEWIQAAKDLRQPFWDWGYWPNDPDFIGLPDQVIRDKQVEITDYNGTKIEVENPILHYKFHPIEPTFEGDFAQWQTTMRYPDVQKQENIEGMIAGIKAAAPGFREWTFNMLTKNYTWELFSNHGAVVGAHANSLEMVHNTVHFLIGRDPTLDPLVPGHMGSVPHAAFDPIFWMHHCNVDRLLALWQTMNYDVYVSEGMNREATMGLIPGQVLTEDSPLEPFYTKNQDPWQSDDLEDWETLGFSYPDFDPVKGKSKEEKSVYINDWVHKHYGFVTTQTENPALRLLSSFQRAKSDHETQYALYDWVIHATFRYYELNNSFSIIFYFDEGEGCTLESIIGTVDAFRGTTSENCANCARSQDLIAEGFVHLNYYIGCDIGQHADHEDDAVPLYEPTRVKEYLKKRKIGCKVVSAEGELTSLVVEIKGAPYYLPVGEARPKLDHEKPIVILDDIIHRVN
Sequence of Mushroom tyrosinase (Agaricus bisporus) (from UniProt O42713+Q00024+C7FF04+C7FF05) (Q00024 whole entry, looked up): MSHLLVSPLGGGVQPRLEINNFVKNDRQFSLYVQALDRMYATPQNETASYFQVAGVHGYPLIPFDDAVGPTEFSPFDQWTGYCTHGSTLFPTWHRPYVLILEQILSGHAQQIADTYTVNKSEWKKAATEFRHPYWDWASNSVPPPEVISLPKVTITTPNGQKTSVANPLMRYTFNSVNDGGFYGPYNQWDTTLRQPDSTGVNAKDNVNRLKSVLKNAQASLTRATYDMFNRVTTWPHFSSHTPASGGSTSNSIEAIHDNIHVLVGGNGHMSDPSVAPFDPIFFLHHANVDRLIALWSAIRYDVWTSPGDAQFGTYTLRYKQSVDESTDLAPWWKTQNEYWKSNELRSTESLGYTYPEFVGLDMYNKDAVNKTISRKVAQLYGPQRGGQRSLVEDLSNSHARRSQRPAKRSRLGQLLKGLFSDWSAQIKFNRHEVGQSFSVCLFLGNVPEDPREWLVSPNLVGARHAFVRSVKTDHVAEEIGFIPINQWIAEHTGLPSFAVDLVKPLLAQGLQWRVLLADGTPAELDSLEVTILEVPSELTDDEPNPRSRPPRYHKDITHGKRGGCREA
Sequence of Mushroom tyrosinase (Agaricus bisporus) (from UniProt O42713+Q00024+C7FF04+C7FF05) (O42713 whole entry, looked up): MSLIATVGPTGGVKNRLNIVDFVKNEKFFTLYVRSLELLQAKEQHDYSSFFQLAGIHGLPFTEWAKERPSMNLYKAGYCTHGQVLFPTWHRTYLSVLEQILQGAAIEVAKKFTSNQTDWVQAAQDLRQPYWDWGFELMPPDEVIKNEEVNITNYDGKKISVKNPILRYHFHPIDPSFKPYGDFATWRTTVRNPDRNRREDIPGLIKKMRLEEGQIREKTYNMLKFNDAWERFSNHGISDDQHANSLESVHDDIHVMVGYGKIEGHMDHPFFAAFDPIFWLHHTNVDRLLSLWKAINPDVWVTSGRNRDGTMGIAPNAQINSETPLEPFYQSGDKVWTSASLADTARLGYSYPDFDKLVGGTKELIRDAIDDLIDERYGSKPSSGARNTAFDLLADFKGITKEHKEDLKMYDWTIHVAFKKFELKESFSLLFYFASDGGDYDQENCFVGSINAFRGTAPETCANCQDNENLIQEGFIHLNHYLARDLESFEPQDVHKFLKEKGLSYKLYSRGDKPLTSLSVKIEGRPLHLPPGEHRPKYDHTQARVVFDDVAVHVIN

As for `CCCn1c(SCc2cc(=O)c(O)co2)nc2ccccc2c1=O`, the values for the inhibition in data set [1], in [2] and in data set [4] were 90.5%, 24.5% and 22.6%, respectively. In addition, the IC50 (as a rule, the midpoint of a concentration-inhibition curve) on Mushroom tyrosinase [3] turned out to be 2310 nM.

With `O=c1cc(CSc2nc3ccccc3c(=O)n2-c2ccccc2)occ1O`, the inhibition (usually the change of the read-out against control, counted positive when it falls) in [1] amounted to 91.7%; in data set [2], 43%; in [4] it was 31.4%. Further, on Mushroom tyrosinase [3], the IC50 was 1880 nM.

Take `O=c1cc(CSc2nc3ccccc3c(=O)n2-c2ccccn2)occ1O`: the Activity in [5] is 69%; in the data set on B16-F10 [7] it was “Non-Toxic”; in the data set on B16-F10 [8], “Toxic”. Also, the inhibition in [1] came to 90.9%; in data set [2] it was 50.5%; in data set [4] it was 33.8%. Moreover, the concentration for half-maximal inhibition (IC50) against Mushroom tyrosinase [3] stood at 500 nM. Besides, the inhibition entry in [6] was “Active”.

As to `O=c1cc(CSc2nc3ccccc3c(=O)n2Cc2ccc(F)cc2)occ1O`, the inhibition is 92% in data set [1], 32.4% in data set [2] and 32.6% in data set [4]. In addition, the IC50 on Mushroom tyrosinase [3] was determined as 1560 nM.

`C=CCn1c(SCc2cc(=O)c(O)co2)nc2ccccc2c1=O`: the results for the inhibition in data set [1] and in [2] were 92% and 32.4%, respectively. The same compound showed an IC50 at Mushroom tyrosinase [3] of 1560 nM.

Consider `O=c1cc(CSc2nc3ccccc3c(=O)n2C2CC2)occ1O`, for which the inhibition was 82.5% in [1], 23.6% in data set [2] and 24.5% in data set [4]. Besides, the IC50 against Mushroom tyrosinase [3] was 2100 nM. Besides, the Ratio IC50 in data set [9] stood at 4.

For the compound `O=c1cc(CSc2nc3ccccc3c(=O)n2Cc2ccncc2)occ1O`, the results for the inhibition in data set [1], in [2] and in data set [4] were 88.5%, 15.9% and 39%, respectively. On Mushroom tyrosinase [3], this compound displayed an IC50 of 2200 nM.

With `O=c1cc(CSc2nc3ccccc3c(=O)n2Cc2ccccn2)occ1O`, the Activity in data set [5] was 75%; in the data set with B16-F10 [7], “Non-Toxic”; in the data set with B16-F10 [8] it was “Toxic”. For the same compound, the inhibition was 90.3% in data set [1], 54.5% in [2] and 42.6% in data set [4]. Moreover, on Mushroom tyrosinase [3], the IC50 was determined as 460 nM. Also, the inhibition entry in data set [6] was “Active”.

Turning to `O=c1cc(CSc2nc3ccccc3c(=O)n2Cc2ccccc2)occ1O`, the inhibition in data set [1] was determined as 94.1%; in data set [2] it was 42.5%; in data set [4], 27.9%. This compound showed an IC50 on Mushroom tyrosinase [3] of 1420 nM.

Regarding `O=c1cc(CSc2nc3ccccc3c(=O)n2-c2ccc(Cl)cc2)occ1O`, the inhibition was found to be 94.2% in data set [1], 49.5% in data set [2] and 32.6% in [4]. The same compound came in with an IC50 at Mushroom tyrosinase [3] of 500 nM.

In the case of `CC(C)n1c(SCc2cc(=O)c(O)co2)nc2ccccc2c1=O`, the results for the inhibition in data set [1], in data set [2] and in data set [4] were 91.2%, 38.6% and 32.6%, respectively. This compound also gave an IC50 against Mushroom tyrosinase [3] of 1440 nM.

As to `O=c1c(O)c(-c2ccc(O)c(O)c2)oc2cc(O)cc(O)c12`, the inhibition in [4] was 4.62%.

Regarding `O=C(Nn1c(-c2ccccc2O)nc2ccccc2c1=O)c1ccco1`, the IC50 against Mushroom tyrosinase [10] was found to be 499 nM.

Consider `O=c1cc(CSc2nc3ccccc3c(=O)n2-c2ccc(Br)cc2)occ1O`, for which the inhibition in [1] was 71.7%; in [2], 40.1%; in [4], 33.3%. Moreover, the IC50 on Mushroom tyrosinase [3] is 1480 nM.

As to `Cc1ccc(-n2c(SCc3cc(=O)c(O)co3)nc3ccccc3c2=O)cc1`, the inhibition in data set [1] stood at 77.3%; in [2], 11.4%; in data set [4] it was 33.3%. In addition, the IC50 on Mushroom tyrosinase [3] is 5320 nM.

Turning to `COc1ccc(-n2c(SCc3cc(=O)c(O)co3)nc3ccccc3c2=O)cc1`, the inhibition was 83.5% in [1], 22.1% in [2] and 27.1% in [4]. For the same compound, the IC50 on Mushroom tyrosinase [3] was found to be 2400 nM.

In the case of “Mushroom tyrosinase (Agaricus bisporus) (from UniProt O42713+Q00024+C7FF04+C7FF05)”, the values for the Km in [11], in [12] and in data set [13] were 1.68 µM, 1.15 µM and 0.92 µM, respectively. Also, the values for the Vmax (optical density/minute) in data set [14], in data set [15] and in data set [16] were 0.27, 0.15 and 0.081, respectively.

On to `COc1ccc(-n2c(SCc3cc(=O)c(O)co3)nc3ccccc3c2=O)cc1OC`, for which the inhibition in [1] was determined as 98.8%; in [2], 40.1%; in data set [4], 24.5%. The same compound yielded an IC50 against Mushroom tyrosinase [3] of 2120 nM.

Consider `COc1cccc(C(=O)NN2C(=O)c3ccccc3NC2c2ccc(F)cc2)c1` (configuration not stated), for which the IC50 at Mushroom tyrosinase [10] came out at 6 nM.

For the origin of these results see ChEMBL document CHEMBL4706702 (Bioorg Med Chem, 2021).
